Values of other authors in article PMC9762682, “Tocotrienols: Exciting Biological and Pharmacological Properties of Tocotrienols and Naturally Occurring Compounds, Part II” (Annals of clinical case reports, 2022).
Like-named read-outs stand apart in the source and are kept apart here. Marks after values point to notes of the source that are not given here.

What was measured:
[1] = set-up: method as in ref 16 = [16]; PMID 27493840; doi:10.4172/2155-9880.1000434; 16. Qureshi AA , Khan DA , Silswal N , Saleem S , Qureshi N . Evaluation of pharmacokinetics and bioavailability of higher doses of δ-tocotrienol in healthy fed humans . J Clin Exp Cardiol . 2016; 7
[2] = tested on: α-Tocopherol Transfer Protein (α-TTP); set-up: method as in PMID 11271854, PMID 8632210
[3] = set-up: method as in ref 14 = [14]; PMID 27493840; doi:10.4172/2155-9880.1000434; 14. Qureshi AA , Khan DA , Saleem S , Silswal N , Trias AM , Tan B , Pharmacokinetics and bioavailability of Annatto δ-tocotrienol in healthy fed subjects . J Clin Exp Cardiol . 2015; 6 : 11 . 10.417; conditions: for time of appearance in the plasma: after δ-tocotrienol administration to well-fed subjects; for Elimination of Half-life time (t1/2) / Elimination rate constant (ke) / Plasma Peak Concentration (Cmax) / Time to achieve plasma peak (Tmax): healthy fed subjects
[4] = 0 Hr., single dose 750 mg δ-tocotrienol
[5] = 0 Hr., single dose 1000 mg δ-tocotrienol
[6] = 1 hr., single dose 750 mg δ-tocotrienol
[7] = 1 hr., single dose 1000 mg δ-tocotrienol
[8] = 2 hr., single dose 750 mg δ-tocotrienol
[9] = 2 hr., single dose 1000 mg δ-tocotrienol
[10] = 4 hr., single dose 750 mg δ-tocotrienol
[11] = 4 hr., single dose 1000 mg δ-tocotrienol
[12] = 6 hr., single dose 750 mg δ-tocotrienol
[13] = 6 hr., single dose 1000 mg δ-tocotrienol
[14] = 8 hr., single dose 750 mg δ-tocotrienol
[15] = 8 hr., single dose 1000 mg δ-tocotrienol
[16] = single dose 1000 mg δ-tocotrienol
[17] = plasma tocol after single 125 mg δ-tocotrienol dose
[18] = plasma tocol after single 250 mg δ-tocotrienol dose
[19] = plasma tocol after single 500 mg δ-tocotrienol dose
[20] = plasma tocol after single dose 750 mg δ-tocotrienol
[21] = plasma tocol after single dose 1000 mg δ-tocotrienol

SMILES	plasma tocol level [1, 4]	plasma tocol level [1, 5]	plasma tocol level [1, 6]	plasma tocol level [1, 7]	plasma tocol level [1, 8]	plasma tocol level [1, 9]	plasma tocol level [1, 10]	plasma tocol level [1, 11]	plasma tocol level [1, 12]	plasma tocol level [1, 13]	plasma tocol level [1, 14]	plasma tocol level [1, 15]	Total tocols (sum of 0-8 h) [1, 16]	α-TTP mediated secretion from the liver into the circulatory system (affinity with α-TTP) [2]	time of appearance in the plasma [3]	Elimination of Half-life time (t1/2) [3, 17]	Elimination rate constant (ke) [3, 17]	Plasma Peak Concentration (Cmax) [3, 17]	Time to achieve plasma peak (Tmax) [3, 17]	Elimination of Half-life time (t1/2) [3, 18]	also measured
Cc1c(C)c2c(c(C)c1O)CC[C@@](C)(CCC[C@H](C)CCC[C@H](C)CCCC(C)C)O2 [α-Tocopherol]	1644 ± 59 ng/mL	1817 ± 80 ng/mL	2080 ± 68 ng/mL	2025 ± 66 ng/mL	2002 ± 91 ng/mL	2115 ± 92 ng/mL	2231 ± 35 ng/mL	2228 ± 22 ng/mL	2754 ± 84 ng/mL	2915 ± 35 ng/mL	2406 ± 51 ng/mL	2139 ± 61 ng/mL	13239 ng/mL	100%	> 2 h	4.99 ± 069^a h	0.237 ± 0.217^a h-1	1822.00 ± 48.24^a ng/mL	6.00 h	4.91 ± 0.84^a h	Tmax ([1]; 750 mg and 1000 mg doses of δ-tocotrienol): 6 h; Elimination rate constant (ke) [3, 18]: 0.084 ± 0.008^a,b h-1; Plasma Peak Concentration (Cmax) [3, 18]: 1931.00 ± 92.54^b ng/mL; Time to achieve plasma peak (Tmax) [3, 18]: 6.00 h; Elimination of Half-life time (t1/2) [3, 19]: 3.58 ± 0.67^a h; Elimination rate constant (ke) [3, 19]: 0.081 ± 0.006^b h-1; Plasma Peak Concentration (Cmax) [3, 19]: 2188 ± 147.61^c ng/mL; Time to achieve plasma peak (Tmax) [3, 19]: 5.46 ± 0.93 h
CC(C)=CCC/C(C)=C/CC/C(C)=C/CC[C@]1(C)CCc2c(C)c(O)c(C)c(C)c2O1 [α-Tocotrienol]	241 ± 16 ng/mL	292 ± 39 ng/mL	268 ± 13 ng/mL	653 ± 42 ng/mL	278 ± 7 ng/mL	807 ± 49 ng/mL	293 ± 11 ng/mL	1125 ± 35 ng/mL	223 ± 5 ng/mL	375 ± 49 ng/mL	86 ± 16 ng/mL	309 ± 17 ng/mL	3561 ng/mL	12%	> 2 h	2.62 ± 0.81^a h	1.234 ± 0.211^a h-1	139.91 ± 11.03^a ng/mL	2.73 ± 0.65 h	2.89 ± 0.84^a h	Elimination of Half-life time (t1/2) [1, 20]: 2.21 ± 0.18^a h; Elimination rate constant (ke) [1, 20]: 0.315 ± 0.188^a h-1; Elimination of Half-life time (t1/2) [1, 21]: 2.15 ± 0.13^b h; Time to achieve plasma peak (Tmax) [1, 21]: 4.00^a h; Total tocols (sum of 0-8 h) ([1]; single dose 750 mg δ-tocotrienol): 1389 ng/mL; Elimination rate constant (ke) [3, 18]: 0.201 ± 0.050^b h-1; Plasma Peak Concentration (Cmax) [3, 18]: 204.91 ± 9.47^b ng/mL; Time to achieve plasma peak (Tmax) [3, 18]: 3.00 h; Elimination of Half-life time (t1/2) [3, 19]: 3.71 ± 0.29^b h; Elimination rate constant (ke) [3, 19]: 0.214 ± 0.009^b h-1; Plasma Peak Concentration (Cmax) [3, 19]: 290.09 ± 9.84^c ng/mL; Time to achieve plasma peak (Tmax) [3, 19]: 3.00 h
